The text below walks through data of patent publication US12319707B2, “Dosage unit form(s) comprising BTS and BTS(OMe) for use in boron neutron capture therapy and methods thereof” (TAE Life Sciences, priority 2021, dated 2025).

Series [1] deals with T1, LAT-1 (Homo sapiens, UniProt Q01650). Kind of series: Boron accumulation in presence of LAT-1 inhibitors (unpublished). It counts as cell-based. The conditions noted are these: unpublished earlier work of the applicant.
Target sequence in this assay (Q01650 whole entry, species assumed): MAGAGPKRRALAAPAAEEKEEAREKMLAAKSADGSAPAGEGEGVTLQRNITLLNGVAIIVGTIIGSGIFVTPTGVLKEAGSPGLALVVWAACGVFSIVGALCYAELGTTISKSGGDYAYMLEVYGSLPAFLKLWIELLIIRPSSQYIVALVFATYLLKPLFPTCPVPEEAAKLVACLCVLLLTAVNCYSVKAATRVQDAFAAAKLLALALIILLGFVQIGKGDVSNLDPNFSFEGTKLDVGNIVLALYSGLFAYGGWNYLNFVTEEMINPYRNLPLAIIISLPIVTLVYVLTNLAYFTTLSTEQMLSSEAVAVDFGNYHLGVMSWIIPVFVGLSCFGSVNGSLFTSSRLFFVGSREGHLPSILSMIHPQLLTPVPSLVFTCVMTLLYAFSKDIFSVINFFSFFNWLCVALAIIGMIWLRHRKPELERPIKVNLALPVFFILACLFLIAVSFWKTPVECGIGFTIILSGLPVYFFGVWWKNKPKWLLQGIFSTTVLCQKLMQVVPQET
Target sequence in this assay (P08195 102-630 partner, species assumed): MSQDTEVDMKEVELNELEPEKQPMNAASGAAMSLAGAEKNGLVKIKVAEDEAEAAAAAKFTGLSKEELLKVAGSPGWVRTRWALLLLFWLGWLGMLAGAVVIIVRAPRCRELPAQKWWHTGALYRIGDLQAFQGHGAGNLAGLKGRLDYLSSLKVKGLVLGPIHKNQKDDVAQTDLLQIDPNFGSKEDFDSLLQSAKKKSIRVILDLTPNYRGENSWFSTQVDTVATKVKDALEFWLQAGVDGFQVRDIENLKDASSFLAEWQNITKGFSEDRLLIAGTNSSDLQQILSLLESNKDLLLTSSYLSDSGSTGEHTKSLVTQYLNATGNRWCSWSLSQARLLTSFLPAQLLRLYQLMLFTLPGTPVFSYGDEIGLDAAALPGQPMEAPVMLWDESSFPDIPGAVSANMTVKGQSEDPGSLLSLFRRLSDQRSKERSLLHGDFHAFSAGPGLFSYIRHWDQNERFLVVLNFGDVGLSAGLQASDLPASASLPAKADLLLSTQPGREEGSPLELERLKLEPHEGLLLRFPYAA
The subject of the next series is FaDu cells. Kind of series: Boron uptake in FaDu cells in vitro (ICP-OES). The class given is cell-based, human. The conditions noted are these: for intracellular boron concentration: equimolar 2.5 mM compound in HBSS, 2 hr, 37° C., ICP-OES.
Series [2] in a line: Cellular retention of boron after removal of boron source from the media. It counts as cell-based.
A short description of series [3]: Pharmacokinetics in non-tumor-bearing Balb/C mice (blood boron by ICP OES). It counts as in vivo. Particulars: for CL / Vss: i.v. tail vein, Balb/C male mice, blood boron. Here is the method:
To determine the pharmacokinetics of BTS versus BPA (BPA-fructose) in blood, the following experiments were performed using the following protocols and under the parameters set forth in Table II. Briefly, […] of each compound ([…] and BPA-fructose) was injected into the tail vein of Balb/C non-tumor bearing male mice (5 mice per group). Blood was drawn at the following time points: 2, 5, 16, 30, 60, 120 and 240 min into EDTA-coated tubes. Boron concentration was measured using ICP OES following the digestion in concentrated nitric acid for one (1) hr. The boron concentration was normalized to 1 mL of blood and plotted using GraphPad Prizm. The PK parameters (see 20(B)) were obtain using PK Solver version 2.0 using compartmental analysis. BPA-fructose was used as a reference substance.

In a further series the test system is CT26 cells. The series is described as follows: Boron uptake in CT26 cells in vitro (ICP-OES). The class given is cell-based, mouse. The conditions noted are these: CT26 cell line, single experiment. From the text: As a result, it accumulates boron compounds at significant levels. Additionally, FaDu also grows well as an established xenograft model in SCID mice. This disclosure endeavored to determine whether a mouse-derived cancer cell line, CT-26, is suitable for BNCT experiments. By way of background, CT26 is a syngeneic model, it can be implanted and established in wild-type BalbC mice and provides a convenient and low-cost model.
Briefly, CT26 cells were harvested and washed with PBS two (2) times, and the count was adjusted 2 million/ml in HBSS media Boron compounds were then added to cells at the final concentration of 2.5 mM in HBSS and the cells were incubated at 37° C. in a humidified 5% CO2 atmosphere for 2.0 hrs. with shaking. Following a two (2) hr. incubation, cells were harvested and washed two times with ice cold PBS. Cells were suspended in 1 ml ice cold PBS and a portion (50 NI) was lysed in RIPA buffer and protein content was determined by BCA assay.
The remaining portion (950 NI) was subjected to nitric acid lysis (66.7% acid at 80° C.) and boron measurements were carried out using ICP-OES.
Low expression of LAT-1 in CT26 estimated by Western blot is consistent with the overall reduced boron uptake. Each bar represents three (3) independent experiments performed on different days (FaDu) or a single experiment (CT-26) Error bars represent 1 standard deviation. […]

The subject of series [4] is FaDu, A375, SCC-25, A253, and Detroit 562. The series is described as follows: BTS uptake across head and neck cancer and melanoma cell lines. The class given is cell-based, human. Particulars: 2 hours treatment, each of the five cell lines. Here is the method: To evaluate the uptake of BTS in multiple head and neck cancer cell lines as well as melanoma cell lines the following experiments were performed using the following protocols.
Briefly, five (5) human-derived cell lines (FaDu, A375, SCC-25, A253, and Detroit 562), all representing cancer indications relevant to BNCT treatment, were cultured, and treated with either BPA-fructose (the standard of care) or with BTS for two (2) hours. The cells were then washed to remove the compounds, harvested, and treated as per the protocol described above. Boron uptake was reported as μg boron per mg of cellular protein as determined by ICP OES and by the BCA assay, respectively.

Series [5] has as its system F98 and C6 rat glioma cell lines. Kind of series: BTS uptake using rat glioma cell lines. It counts as cell-based. The conditions noted are these: 2 hr, F98 and C6 cells. An excerpt:
Rat glioma cell lines were extensively used as orthotopic cancer models to conduct reactor based BNCT studies using either innovative boron carriers or a myriad of ways to enhance the uptake of BPA, including convection enhanced delivery of boronoporphyrins (Yang, et al., doi:10.1016/j.apradiso.2014.01.002), or pre-treatment of tumors with L-DOPA (Barth, et al., J Neurooncol. 2009; 94:299-312).
In this experiment, used cultured cell lines to confirm that BTS can be used for efficient boron delivery into both F98 and C6 rat glioma cell lines. […] This compound is expected to cross BBB and will be relevant for BNCT of brain tumors.

A further series concerns subcutaneous FaDu tumors. Kind of series: Time-course biodistribution and tumor to blood ratio in mice bearing subcutaneous FaDu tumors. The class given is in vivo. Particulars: 400 mg/kg bolus i.v. Here is the method: To determine the biodistribution of BTS and BTS(OMe) and the tumor to blood ration, the following experiments were performed using the following protocols. Briefly, all compounds tested, with the exception of BPA, were prepared as 100 mg/mL stocks. BPA was prepared as a fructose solution at 25 mg/ml. The concentrations were confirmed by ICP OES prior to the study. The blood and tissues (tumor, kidney, and pancreas) were harvested at the times indicated, weighed, and placed inside the Teflon containers and digested using a CEM microwave oven. The digested tissues were analyzed by ICP OES to determine the boron concentration.
All animal studies were carried out following the “Guide for the care and use the laboratory animals,” Eighth Edition and Animal Welfare Act (USDA). Briefly, human hypopharyngeal squamous cell carcinoma FaDu cells were maintained in DMEM, supplemented with L-glutamine and 10% FBS. Subcutaneous (s.c.) tumors were generated by injection of 2.5×10^6 cancer cells mixed at a 1:1 dilution with Matrigel (Corning Life Sciences) in the right flank of female CB17 SCID mice. Tumor sizes were determined by caliper measurements, and the tumor volume was calculated as width^2×Length/2, wherein width is the smallest dimension and length is the largest dimension. Tumors were allowed to grow untreated until they reached an approximate volume of 300 mm^3. At that point, animals were randomized and allocated to each treatment group based on tumor volume at the time of treatment initiation to ensure similar mean tumor size and variation in each group.
Each group received a single dose of BPA at […] or a test article at either 400 mg/kg or […] via intravenous tail vein injection. […] Two (2) hrs. post dose, blood was collected from each mouse from the submandibular vein into K2 EDTA coated tubes. Tumor and organs were collected for boron analysis.
In order to determine the biodistribution of BTS and BTS(OMe) in FaDu-tumor bearing mice and determine the most appropriate time to harvest the tumor and organs of interest during the subsequent dose-escalation studies, 400 mg/kg doses of both molecules were administered as a bolus i.v. injection. BPA-fructose was administered at a dose of […] due to its solubility constraints and the requirements for the maximum i.v. volume allowed. The boron compound accumulation in blood/organs was determined by ICP OES and expressed as μg boron per gram of tissue.

Series [6] concerns FaDu, Detroit 562, MeWo, A549, HCC-1954 xenografts. The series is described as follows: Boron uptake across panel of established tumor xenografts. The conditions noted are these: BTS or BTS(OMe) 800 mg/kg vs BPA 200 mg/kg, 2 hours post-injection, SCID CB-17 mice. It counts as in vivo. From the text:
In a further experiment, to ascertain whether BTS and BTS(OMe) are taken up to a relatively higher degree across cancer multiple cell lines which results in a higher boron concentration, the following protocol was used. Briefly, a panel of five (5) human cancer cell lines derived from multiple indications that would be considered for treatment using BNCT were used. Specifically, the panel consisted of Head and Neck Carcinomas (FaDu and Detroit 562), melanoma (MeWo), non-small cancer lung carcinoma (A549), and breast carcinoma (HCC-1954).
Using standard methods, subcutaneously implanted established mouse xenografts were grown in SCID CB-17 mice. The treatment began when the tumors reached 150-200 mm^3 as follows: the BTS or BTS(OMe) arms received 800 mg/kg and the control BPA arm received 200 mg/kg. The animals were euthanized at two (2) hours post-injection. The tumors were harvested, weighed, and digested using the standard methods. The concentration of boron was measured by ICP OES and plotted as microgram per gram tissue. […] However, the absolute uptake varied between the cell lines with the overall lowest uptake observed in the Detroit 562 tumors.

A short description of the next series: Solubility in water. The class given is physicochemical. As to the method: To determine the solubility and impurity profiles of BTS and BTS(OMe) in solution, the following experiments were performed using the following protocols. Briefly, BTS test article preparation(s) were prepared by dissolving in water and adjusting pH to 7-7.5 by NaOH.
BTS(OMe) test article preparation(s) were prepared by dissolving in water and gradually raising pH by adding NaOH until all the crystals are solubilized. The pH at that point is approximately 9.5-10. Fructose is then added at the ratio of 1.1 mol/mol BTS(OMe). The pH is adjusted to 7-7.5 using concentrated HCl.
Both solutions were adjusted to 100 mg/mL and 0.2 μm filtered. The actual concentrations are confirmed by ICP OES.

The target of series [7] is T1, LAT-1. Kind of series: Uptake competition assay with phenylalanine in FaDu cells. It counts as cell-based. The arrangement: endogenous in cells; host or cells: FaDu. Particulars: 0.5 mM compound, Phe 0.01 to 20 mM, compared to BTS(OMe) or BPA. Here is the method:
To determine the ability for BTS and BTS(OMe) to mediate LAT-1, the following experiments were performed using the following protocols. Briefly, FaDu cells (2 million) were incubated in HBSS medium for two (2) hrs. at 37° C. with 0.5 mM of either (i) BTS, (ii) BTS(OMe), or (iii) BPA-fructose in the absence (19A) or presence of increasing concentrations of LAT-1 specific inhibitor JPH203-dichloride, (19A) or phenylalanine, a competitor (19B). Following incubation, the cells were harvested and washed with cold PBS. The amount of each compound that was taken up by the cells was determined by ICP OES. The IC50 determination was made by a three (3) parameter inhibitor non-linear regression fit using Prism (Graph Pad) software.
In the competition assay, increased concentration of Phe in the range of 0.01 to 20 mM was used. […] (FIG. 19).
Target sequence in this assay (Q01650 whole entry): as the sequence (Q01650 whole entry, species assumed) above
Target sequence in this assay (P08195 102-630 partner): as the sequence (P08195 102-630 partner, species assumed) above

For a further series, the system named is subcutaneous FaDu. Kind of series: Dose titration, biodistribution and boron uptake using subcutaneous FaDu xenografts. The class given is in vivo, mice. Particulars: 2 hr post injection. Here is the method: To determine the biodistribution and boron uptake of BTS and BTS(OMe) in vivo, the following experiments were performed using the following protocols. Briefly, to evaluate the effect of increased dose level using bolus i.v. injection on the accumulation of boron in the tumor, SCID mice carrying subcutaneous FaDu were dosed with BTS and BTS(OMe) at the levels ranging from 400 to 1000 mg/kg.
The tumor and selected organs were harvested at two (2) hr. post injection and processed for ICP OES.

`Nc1cc(COc2c(Cl)cc(C[C@H](N)C(=O)O)cc2Cl)c2oc(-c3ccccc3)nc2c1` [JPH203]: the “effect of LAT-1 inhibitor on boron accumulation of borylated tyrosine analogs” value at LAT-1 [1] is “diminished boron accumulations in a concentration-dependent fashion”.

`N[C@@H](Cc1ccc(B(O)O)cc1)C(=O)O` [BPA, 4-Borono-L-phenylalanine, reference compound] yielded an intracellular boron concentration in the series on FaDu cells of 1097 ± 59 µg/g. In addition, in [2], the “intracellular boron once boron source is removed and replaced with fresh medium (cellular retention)” value is reported as “decreases sharply”. Moreover, in series [3], the CL was 0.00011 mg/(μg/mL)/min and the Vss is 0.0289 mg/µg/mL.

For the compound `N[C@@H](Cc1ccc(O)c(B(O)O)c1)C(=O)O` [BTS], in the series on FaDu cells, the intracellular boron concentration came to 1700 ± 133 µg/g. For the same compound, the “intracellular boron concentration higher compared to BPA-fructose” value with FaDu cells (equimolar concentrations) is reported as 60%. Besides, the “amount of compound internalized in CT26 less than in FaDu” value with CT26 cells is “more pronounced”. Further, the “boron uptake compared to BPA-fructose” value in series [4] is “superior uptake”. The “boron concentration achieved, BTS compared to BPA-fructose” value in series [5] is above 2 fold. Moreover, in [3], the CL is recorded as 0.000304 mg/(μg/mL)/min and the Vss stood at 0.0252 mg/µg/mL. Also, the pharmacokinetic profile entry in [3] (saline formulation, i.v.) is given as “bi-phasic pharmacokinetics”. Further, the “uptake in murine pancreas” value in the series with subcutaneous FaDu tumors is “exceedingly high uptake”. In the series on subcutaneous FaDu tumors (FaDu xenografts), the “increase of tumor to blood ratio between 30 and 60 min” value is “more than two-fold”. For the same compound, the “decline of boron in the kidney” value with subcutaneous FaDu tumors (from initial time point of 5 min) is listed as “considerably slower”. Moreover, the “amount of boron in tumors across xenograft panel” value in series [6] is recorded as “highest”. In addition, in the series “Solubility in water”, the solubility in water result is listed as “very soluble in water”. Moreover, the “IC50 of phenylalanine competition of compound uptake” value at LAT-1 [7] is listed as “higher IC50”.

With `COc1ccc(C[C@H](N)C(=O)O)cc1B(O)O` [BTS(OMe)], the intracellular boron concentration in the series on FaDu cells amounted to 1005 ± 113 µg/g. For the same compound, the “biodistribution compared to BPA” value in the series on subcutaneous FaDu tumors (BPA-fructose 200) is listed as “remarkably similar in its biodistribution to BPA”. Further, the “accumulation in kidney or pancreas” value with subcutaneous FaDu is “does not accumulate”. Further, the “amount of boron in tumors across xenograft panel” value in series [6] is “highest”. In addition, the solubility in water result in the series “Solubility in water” was “very soluble in water”.

Regarding `NC1(C(=O)O)CC2CCC1C2` (stereo not shown) [BCH, 2-aminobicyclo-(2,2,1)-heptane-2-carboxylic acid], the “effect of LAT-1 inhibitor on boron accumulation of borylated tyrosine analogs” value at LAT-1 [1] is “diminished boron accumulations in a concentration-dependent fashion”.
